According to patent US8993565B2, “(6-oxo-1,6-dihydropyrimidin-2-yl)amide derivatives, preparation thereof and pharmaceutical use thereof as AKT(PKB) phosphorylation inhibitors” (Sanofi, priority 2009, dated 2015):

Each molecule was assayed on AKT protein phosphorylated on serine 473 (pAKT-S473) (assay: Study of pAKT expression in PC3 human prostate carcinoma cells measured by western blotting (Test A)). Details: PC-3, inhibition of AKT phosphorylation (pAKT-S473), 1 to 2 hours incubation, absolute IC50, mean of two experiments.
Assay type: cell-based
Experimental: The inhibitory activity of the molecules on AKT phosphorylation is measured either by western blotting using the technique described below, or by the MSD Multi-spot Biomarker detection technique from Meso Scale Discovery also described below.
Study of pAKT Expression in PC3 Human Prostate Carcinoma Cells Measured by Western Blotting (Test A):
On day 2, the cells are incubated in the presence or absence of the test products for 1 to 2 hours at 37° C. in the presence of 5% CO2. The molecules, diluted in dimethyl sulphoxide (DMSO Sigma #D2650), are added from a 10-times concentrated stock solution, the final percentage of DMSO being 0.1%. The molecules are tested either at a single concentration of less than or equal to 10 μM, or at increasing concentrations in a range that can extend from less than 1 nM to 10 μM.
After this incubation, the cells are lysed for the preparation of the proteins.
The lysate is centrifuged for 10 min at 6000 rpm. 155 μl of supernatant are recovered. 150 μl are incubated for denaturation for 5 min at 95° C. in the presence of 4× NuPAGE LDS Sample Buffer diluted 4-fold (InVitrogen ref NP0007) and of 10× NuPAGE Sample Reducing Agent diluted 10-fold (InVitrogen ref NP0009). These samples are then frozen at −20° C.
The gel is then transferred on to an Invitrolon PVDF membrane (Invitrogen #LC2007) permeabilised beforehand and for a few seconds in ethanol (Ethanol Fischer Scientific #E/0600DF/15).
The transfer is carried out in a Biorad tank at 30 volts overnight or at 60 volts for 3 hours, in the presence of 20× NUPAGE Transfer Buffer diluted 20-fold (InVitrogen ref NP0006).
The membrane is then saturated in saturating solution composed of TBS (10× Tris Buffered Saline, Sigma #T5912, diluted 10-fold), 0.1% Tween (Sigma #P5927) and 3% BSA (Bovine Albumin Serum Fraction V, Sigma #A4503) for 6 h after overnight transfer or else for 1 h after transfer for a period of 3 h.
Two rinses for min in washing solution composed of TBS and 0.1% Tween 20 are carried out before hybridisation of the secondary antibodies.
The secondary antibodies are diluted 110000th for the rabbit anti-Mouse IgG HRP antibody (W402 Promega) and to 110000th for the goat anti-Rabbit IgG HRP antibody (W401 Promega) in saturating solution, and then shaken for 1 h at ambient temperature.
Two rinses for 30 min in washing solution are carried out and then a rinse for 5 min in H2O is carried out in order to eliminate the remaining Tween 20.
The luminescence is read with the FujiFilm device (Ray Test).
The FUJI device measures the total luminescence signal obtained (AU) for each band selected. It then subtracts the background noise (BG) proportional to the size of the band selected (Area), said background noise being calculated from a specific background noise band, with a view to obtaining the specific signal (AU-BG) for each band. The band obtained in the absence of product and in the presence of 0.1% DMSO is considered to be the 100% signal. The software calculates the % specific activity (Ratio) obtained for each band selected as a function of this 100% signal. The percentage inhibition is calculated for each concentration according to the formula (100%−Ratio).
Two independent experiments make it possible to calculate the mean of the percentages of inhibition obtained at a given concentration for the products tested only at one concentration.
Two independent experiments make it possible to calculate the mean of the IC50s.

| SMILES | IC50 [µM] |
| --- | --- |
| O=C(Cc1nc(N2CCOCC2)cc(=O)[nH]1)Nc1ccccc1 [Example 1, 2-[4-(morpholin-4-yl)-6-oxo-1,6-dihydropyrimidin-2-yl]-N-phenylacetamide] | 0.102 |
| O=C(Cc1nc(N2CCOCC2)cc(=O)[nH]1)Nc1ccc(F)cc1 [Example 2, N-(4-fluorophenyl)-2-[4-(morpholin-4-yl)-6-oxo-1,6-dihydropyrimidin-2-yl]acetamide] | 0.321 |
| O=C(Cc1nc(N2CCOCC2)cc(=O)[nH]1)Nc1cccc(Cl)c1 [Example 3, N-(3-chlorophenyl)-2-[4-(morpholin-4-yl)-6-oxo-1,6-dihydropyrimidin-2-yl]acetamide] | 0.1 |
| O=C(Cc1nc(N2CCOCC2)cc(=O)[nH]1)Nc1ccc(F)c(F)c1 [Example 6, N-(3,4-difluorophenyl)-2-[4-(morpholin-4-yl)-6-oxo-1,6-dihydropyrimidin-2-yl]acetamide] | 0.023 |
| COc1cc(NC(=O)Cc2nc(N3CCOCC3)cc(=O)[nH]2)ccc1F [Example 8, N-(4-fluoro-3-methoxyphenyl)-2-[4-(morpholin-4-yl)-6-oxo-1,6-dihydropyrimidin-2-yl]acetamide] | 0.318 |
| O=C(Cc1nc(N2CCOCC2)cc(=O)[nH]1)Nc1ccccc1F [Example 9, N-(2-fluorophenyl)-2-[4-(morpholin-4-yl)-6-oxo-1,6-dihydropyrimidin-2-yl]acetamide] | 0.727 |
| Cc1ccccc1NC(=O)Cc1nc(N2CCOCC2)cc(=O)[nH]1 [Example 10, N-(2-methylphenyl)-2-[4-(morpholin-4-yl)-6-oxo-1,6-dihydropyrimidin-2-yl]acetamide] | 3.5 |
| COc1cccc(NC(=O)Cc2nc(N3CCOCC3)cc(=O)[nH]2)c1 [Example 16, N-(3-methoxyphenyl)-2-[4-(morpholin-4-yl)-6-oxo-1,6-dihydropyrimidin-2-yl]acetamide] | 0.85 |
| O=C(Cc1nc(N2CCOCC2)cc(=O)[nH]1)Nc1cccc(C(F)(F)F)c1 [Example 17, 2-[4-(morpholin-4-yl)-6-oxo-1,6-dihydropyrimidin-2-y]-N-[3-(trifluoromethyl)phenyl]acetamide] | 1.48 |
| O=C(Cc1nc(N2CCOCC2)cc(=O)[nH]1)Nc1cccc(Br)c1 [Example 18, N-(3-bromophenyl)-2-[4-(morpholin-4-yl)-6-oxo-1,6-dihydropyrimidin-2-yl]acetamide] | 0.023 |
| COC(=O)c1cccc(NC(=O)Cc2nc(N3CCOCC3)cc(=O)[nH]2)c1 [Example 20, methyl 3-({[4-(morpholin-4-yl)-6-oxo-1,6-dihydropyrimidin-2-yl]acetyl}amino)benzoate] | 1.31 |
| Cc1cccc(NC(=O)Cc2nc(N3CCOCC3)cc(=O)[nH]2)c1 [Example 23, N-(3-methylphenyl)-2-[4-(morpholin-4-yl)-6-oxo-1,6-dihydropyrimidin-2-yl]acetamide] | 0.039 |
| O=C(Cc1nc(N2CCOCC2)cc(=O)[nH]1)Nc1ccc(F)c(Cl)c1 [Example 29, N-(3-chloro-4-fluorophenyl)-2-[4-(morpholin-4-yl)-6-oxo-1,6-dihydropyrimidin-2-yl]acetamide] | 0.116 |
| O=C(Cc1nc(N2CCOCC2)cc(=O)[nH]1)Nc1cc(F)c(F)c(F)c1 [Example 34, 2-[4-(morpholin-4-yl)-6-oxo-1,6-dihydropyrimidin-2-yl]-N-(3,4,5-trifluorophenyl)acetamide] | 0.609 |
| O=C(Cc1nc(N2CCOCC2)cc(=O)[nH]1)Nc1cccc(OC(F)(F)F)c1 [Example 43, 2-[4-(morpholin-4-yl)-6-oxo-1,6-dihydropyrimidin-2-yl]-N-[3-(trifluoromethoxy)phenyl]acetamide] | 0.549 |
| C#Cc1cccc(NC(=O)Cc2nc(N3CCOCC3)cc(=O)[nH]2)c1 [Example 48, N-(3-ethynylphenyl)-2-[4-(morpholin-4-yl)-6-oxo-1,6-dihydropyrimidin-2-yl]acetamide] | 0.184 |

More lines, in order of falling IC50, values ahead:

| IC50 [µM] | SMILES |
| --- | --- |
| 10 | O=C(Cc1nc(N2CCOCC2)cc(=O)[nH]1)Nc1cccc(C(=O)O)c1 [Example 21, 3-({[4-(morpholin-4-yl)-6-oxo-1,6-dihydropyrimidin-2-yl]acetyl}amino)benzoic acid] |
| 6.72 | O=C(Cc1nc(N2CCOCC2)cc(=O)[nH]1)Nc1ccc(F)cc1O [Example 50, N-(4-fluoro-2-hydroxyphenyl)-2-[4-(morpholin-4-yl)-6-oxo-1,6-dihydropyrimidin-2-yl]acetamide] |
| 3.64 | O=C(Cc1nc(N2CCOCC2)cc(=O)[nH]1)Nc1cccc(O)c1 [Example 32, N-(3-hydroxyphenyl)-2-[4-(morpholin-4-yl)-6-oxo-1,6-dihydropyrimidin-2-yl]acetamide] |
| 2.29 | N#Cc1cccc(NC(=O)Cc2nc(N3CCOCC3)cc(=O)[nH]2)c1 [Example 26, N-(3-cyanophenyl)-2-[4-(morpholin-4-yl)-6-oxo-1,6-dihydropyrimidin-2-yl]acetamide] |
| 1.76 | COc1cc(NC(=O)C(C)c2nc(N3CCOCC3)cc(=O)[nH]2)ccc1F (centres unmarked) [Example 39, N-(4-fluoro-3-methoxyphenyl)-2-[4-(morpholin-4-yl)-6-oxo-1,6-dihydropyrimidin-2-yl]propanamide] |
| 1.49 | Cc1cccc(NC(=O)Cc2nc(N3CCOCC3)cc(=O)[nH]2)c1C [Example 40, N-(2,3-dimethylphenyl)-2-[4-(morpholin-4-yl)-6-oxo-1,6-dihydropyrimidin-2-yl]acetamide] |
| 1.42 | O=C(Cc1nc(N2CCOCC2)cc(=O)[nH]1)Nc1ccc(Cl)cc1 [Example 15, N-(4-chlorophenyl)-2-[4-(morpholin-4-yl)-6-oxo-1,6-dihydropyrimidin-2-yl]acetamide] |
| 0.632 | COc1ccccc1NC(=O)Cc1nc(N2CCOCC2)cc(=O)[nH]1 [Example 11, N-(2-methoxyphenyl)-2-[4-(morpholin-4-yl)-6-oxo-1,6-dihydropyrimidin-2-yl]acetamide] |
| 0.48 | O=C(Cc1nc(N2CCOCC2)cc(=O)[nH]1)Nc1cccc(OC(F)F)c1 [Example 38, N-[3-(difluoromethoxy)phenyl]-2-[4-(morpholin-4-yl)-6-oxo-1,6-dihydropyrimidin-2-yl]acetamide] |
| 0.35 | CC(C)c1cccc(NC(=O)Cc2nc(N3CCOCC3)cc(=O)[nH]2)c1 [Example 22, 2-[4-(morpholin-4-yl)-6-oxo-1,6-dihydropyrimidin-2-yl]-N-[3-(propan-2-yl)phenyl]acetamide] |
| 0.346 | O=C(Cc1nc(N2CCOCC2)cc(=O)[nH]1)Nc1ccc(F)c(C(F)(F)F)c1 [Example 47, N-[4-fluoro-3-(trifluoromethyl)phenyl]-2-[4-(morpholin-4-yl)-6-oxo-1,6-dihydropyrimidin-2-yl]acetamide] |
| 0.308 | CC(C)Oc1cccc(NC(=O)Cc2nc(N3CCOCC3)cc(=O)[nH]2)c1 [Example 44, 2-[4-(morpholin-4-yl)-6-oxo-1,6-dihydropyrimidin-2-yl]-N-[3-(propan-2-yloxy)phenyl]acetamide] |
| 0.261 | COc1cc(F)ccc1NC(=O)Cc1nc(N2CCOCC2)cc(=O)[nH]1 [Example 45, N-(4-fluoro-2-methoxyphenyl)-2-[4-(morpholin-4-yl)-6-oxo-1,6-dihydropyrimidin-2-yl]acetamide] |
| 0.171 | Cc1cc(NC(=O)Cc2nc(N3CCOCC3)cc(=O)[nH]2)ccc1F [Example 28, N-(4-fluoro-3-methylphenyl)-2-[4-(morpholin-4-yl)-6-oxo-1,6-dihydropyrimidin-2-yl]acetamide] |
| 0.133 | O=C(Cc1nc(N2CCOCC2)cc(=O)[nH]1)N1CCc2ccccc21 [Example 51, 2-[2-(2,3-dihydro-1 H-indol-1-yl)-2-oxoethyl]-6-(morpholin-4-yl)pyrimidin-4(3H)-one] |
| 0.093 | O=C(Cc1nc(N2CCOCC2)cc(=O)[nH]1)Nc1ccc(F)c(Br)c1 [Example 33, N-(3-bromo-4-fluorophenyl)-2-[4-(morpholin-4-yl)-6-oxo-1,6-dihydropyrimidin-2-yl]acetamide] |
